The results in this text go back to patent US6503919B1, “Compounds of 7-oxo-2,3,7,14-tetrahydro-1H-benzo[b]pyrano[3,2-h]acridin carboxylate” (Les Laboratoires Server, priority 1999, dated 2003).

SMILES strings stand for the structures.

Series [1] has as its system murine leukaemia L1210 and human colon carcinoma HT-29. Nature of the series: In vitro cytotoxicity, Microculture Tetrazolium Assay. The note with it: 4 doubling periods: 48 hours (L1210) or 96 hours (HT-29); cell line not stated; read-out: IC50 (cytotoxic concentration that inhibits the proliferation of the treated cells by 50%). Type of series: cell-based. How it is done:
The murine leukaemia L1210 and the human colon carcinoma HT-29 were used in vitro. The cells are cultured in complete RPMI 1640 culture medium containing 10% foetal calf serum, 2 mM glutamine, 50 U/ml of penicillin, 50 μg/ml of streptomycin and 10 mM Hepes, pH: 7.4. The cells are distributed in microplates and exposed to the cytotoxic compounds for 4 doubling periods, that is to say 48 hours (L1210) or 96 hours (HT-29). The number of viable cells is then quantified by a colorimetric assay, the Microculture Tetrazolium Assay (J. Carmichael et al., Cancer Res., 47, 936-942, (1987)). The results are expressed as IC50 values, which is the cytotoxic concentration that inhibits the proliferation of the treated cells by 50%.

The test system of series [2] is P 388 (murine leukaemia). Briefly: Anti-tumour activity on the leukaemia P 388. The series is classed as in vivo. As to conditions: B6D2F1 mice, intraperitoneal route on day 1. On the procedure: The line P 388 (murine leukaemia) was supplied by the National Cancer Institute (Frederick, USA). The tumour cells (10^6 cells) were inoculated on day 0 into the peritoneal cavity of female B6D2F1 mice (Iffa Credo, France). Six mice weighing from 18 to 20 g were used per experimental group. The compounds were administered by the intraperitoneal route on day 1.
The anti-tumour activity is expressed as % of T/C: [formula]

A word on the melting point: it is the temperature of the solid-liquid transition. Compound `COc1cc2c(c3c1c(=O)c1cc4ccccc4cc1n3C)[C@@H](OC(C)=O)[C@@H](OC(=O)CCC(=O)O)C(C)(C)O2` (racemic) [Example 1, (±)-cis-4-{[1-(Acetyloxy)-6-methoxy-3,3,14-trimethyl-7-oxo-2,3,7,14-tetrahydro-1H-benzo[b]pyrano[3,2-h]acridin-2-yl]oxy}-4-oxobutanoic acid] gave a melting point of 154 °C. For the same compound, the IC50 in series [1] amounted to 2000 nM. For `COc1cc2c(c3c1c(=O)c1cc4ccccc4cc1n3C)[C@@H](OC(=O)CCC(=O)O)[C@@H](OC(=O)CCC(=O)O)C(C)(C)O2` (racemic) [Example 7, (±)-cis-4-({1-[(3-Carboxypropanoyl)oxy]-6-methoxy-3,3,14-trimethyl-7-oxo-2,3,7,14-tetrahydro-1H-benzo[b]pyrano[3,2-h]acridin-2-yl}oxy)-4-oxobutanoic acid] the same measures were 128 °C and 2300 nM. The compound `COc1cc2c(c3c1c(=O)c1cc4ccccc4cc1n3C)[C@@H](OC(=O)CCCC(=O)O)[C@@H](OC(=O)CCCC(=O)O)C(C)(C)O2` (relative stereo) [Example 22, cis-5-({1-[(4-Carboxybutanoyl)oxy]6-methoxy-3,3,14-trimethyl-7-oxo-2,3,7,14-tetrahydro-1H-benzo[b]pyrano[3,2-h]acridin-2-yl}oxy)-5-oxopentanoic acid] came in with a melting point of 118 °C. The compound `COc1cc2c(c3c1c(=O)c1cc4ccccc4cc1n3C)[C@@H](OC(C)=O)[C@@H](OC(=O)CCCC(=O)O)C(C)(C)O2` (racemic) [Example 3, (±)-cis-5-{[1-(Acetyloxy)-6-methoxy-3,3,14-trimethyl-7-oxo-2,3,7,14-tetrahydro-1H-benzo[b]pyrano[3,2-h]acridin-2-yl]oxy}-5-oxopentanoic acid] yielded a melting point of 155 °C.

Consider `COc1cc2c(c3c1c(=O)c1ccccc1n3C)C=CC(C)(C)O2` [acronycine], for which the “anti-tumour activity in the P 388 model (in words)” value in series [2] is recorded as “only marginally active”.
